Consider one compound from patent US6525089B1, “Pharmaceutical composition containing decursin” (Binex Co., Ltd., priority 1998, dated 2003).

One assay deals with SD rats. Description: BUN and creatinine in blood as markers of nephrotoxicity, cisplatin-treated rats. Type of assay: in vivo, rat. As for the experimental part:
The detailed test methods were summarized hereinafter. BUN (blood urea nitrogen) and creatinine as a marker of nephrotoxicity in the blood, sGPT as a marker of hepatotoxicity, occult blood in the urine, bilirubin, urobilinogen, ketone, protein, nitrite, glucose, pH and specific gravity were determined as follows. […] BUN value was measured using the BUN measurement kit (Youngdong Pharm. Co. Ltd., Korea) in the following procedure. 0.1 ml of urease was added to 20 ml of buffer solution to obtain enzymatic buffer solution. […] The two test tubes were incubated at 37° C. for 15 minutes. Then 2 ml of color-forming solution was added into each test tube and incubated again at 37° C. for 5 minutes. The absorbance was measured at 570 nm to determine the amount of BUN. (2) Measurement of Creatinine Creatinine value was measured using the creatinine measurement kit (Youngdong, Pharm. Co. Ltd., Korea) in the following procedure. 4 ml of tungsten solution was added in 0.5 ml of serum sample to be tested, and stirred vigorously and then left for 10 minutes. […]. Every 3 ml of the supernatant, reference solution of creatinine and distilled water (for blank test) was put to the separate test tubes, followed by the addition of picrate solution (1 ml each). Then 0.5 ml of 1.4N NaOH was added in each tube and stirred to measure the absorbance at 515 nm exactly after the correct lapse of 15 minutes. A total of 10 male SD rats (body weight: 200 g) were used for this experiment. […] The animals were sacrificed and again weighed four days after treatment. […] Blood samples were also taken and left to sit for 30 minutes to isolate the sera, which was used to determine BUN, creatinine and sGPT values as markers of […].

Assay [1] is classed as in vivo, rat. The following applies: individual rats 1-4, start 200 g, four days after treatment. As for the experimental part:
A total of 10 male SD rats (body weight: 200 g) were used for this experiment. […] The animals were sacrificed and again weighed four days after treatment. […] Blood samples were also taken and left to sit for 30 minutes to isolate the sera, which was used to determine BUN, creatinine and sGPT values as markers of […].

[2] abbreviates: post-treated: decursin 17.4 mg/kg i.p. 1, 24, 48 h after cisplatin 5.8 mg/kg i.p.
The mark [3] stands for this setting: pre-treated: decursin 17.4 mg/kg i.p. 1, 24, 48 h prior to cisplatin 5.8 mg/kg i.p.

Values joined by “and” are separate entries in the source; they are usually repeats but may differ in a detail not shown here. Identical values can stand only once. Like-named read-outs stand apart in the source and are kept apart here.

As for `CC(C)=CC(=O)O[C@H]1Cc2cc3ccc(=O)oc3cc2OC1(C)C` [decursin], the results for the BUN with SD rats (setting [2]) and with SD rats (setting [3]) were 55.2 ± 2.1 mg/dL and 17.5 ± 2.8 mg/dL, respectively. In addition, the Creatinine in the assay with SD rats (setting [2]) came to 2.08 ± 0.52 mg/dL; with SD rats (setting [3]), 0.74 ± 0.29 mg/dL. For the same compound, the “reduction of nephrotoxicity (creatinine) compared with the control group receiving cisplatin” value in the assay on SD rats (post-treatment group) is given as “about 40%”. The Body weight was 190 g and 185 g and 180 g (2×) in assay [1] (post-treatment group (decursin after cisplatin)); 184 g and 190 g and 180 g (2×) in assay [1] (pre-treatment group (decursin before cisplatin)).
